Test results taken from ChEMBL document CHEMBL1201862, “PubChem BioAssay data set” (2004).
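Test compounds were applied to cells in 96-well plates for 48 hours at 5 doses. GI50 is the concentration that inhibits growth by half.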 The source made the active and inactive calls. No stated cut-off is given here; in the data, active = GI50 up to about 1.1 µM and inactive = higher.

Assays:
Assay in all cases: NCI anticancer screen, dose series, 48 h
A498 = system: A498
RPMI-8226 = system: RPMI-8226
SNB-75 = system: SNB-75
SR = system: SR
786-0 = system: 786-0
A549 = system: A549
CAKI-1 = system: CAKI-1
CCRF-CEM = system: CCRF-CEM
COLO 205 = system: COLO 205
DU-145 = system: DU-145
EKVX = system: EKVX
HCT-15 = system: HCT-15
HL-60 = system: HL-60
HOP-62 = system: HOP-62
HOP-92 = system: HOP-92
HT-29 = system: HT-29
IGROV-1 = system: IGROV-1
K562 = system: K562
KM12 = system: KM12
LOX IMVI = system: LOX IMVI
M14 = system: M14
MDA-MB-231 = system: MDA-MB-231
MDA-MB-435 = system: MDA-MB-435
MDA-N = system: MDA-N
MOLT-4 = system: MOLT-4
Malme-3M = system: Malme-3M
NCI-H23 = system: NCI-H23
OVCAR-4 = system: OVCAR-4
OVCAR-8 = system: OVCAR-8
PC-3 = system: PC-3
RXF 393 = system: RXF 393
SF-268 = system: SF-268
SF-295 = system: SF-295
SK-MEL-28 = system: SK-MEL-28
SK-MEL-5 = system: SK-MEL-5
SK-OV-3 = system: SK-OV-3
SN12C = system: SN12C
SW-620 = system: SW-620
T47D = system: T47D
TK-10 = system: TK-10
UACC-257 = system: UACC-257
UACC-62 = system: UACC-62
ACHN = system: ACHN
BT-549 = system: BT-549
HCC 2998 = system: HCC 2998
HCT-116 = system: HCT-116
MCF7 = system: MCF7
NCI-H226 = system: NCI-H226
NCI-H460 = system: NCI-H460
NCI/ADR-RES = system: NCI/ADR-RES
OVCAR-3 = system: OVCAR-3
OVCAR-5 = system: OVCAR-5
SK-MEL-2 = system: SK-MEL-2
SNB-19 = system: SNB-19
U-251 = system: U-251
UO-31 = system: UO-31

Measured: GI50

CCCCCCCCCCCCCCCCCCOC[C@H](COP(=O)(O)O[C@H]1[C@H](O)[C@@H](O)[C@H](O)C[C@H]1O)OC
inactive: A498 > 100 µM | RPMI-8226 22.1 µM | SNB-75 19.2 µM | SR 15.8 µM

CN(C)c1n/c(=N/Cc2cccnc2)ss1
inactive: 786-0 > 10 µM | A549 > 10 µM | CAKI-1 > 10 µM | COLO 205 > 10 µM | DU-145 > 10 µM | EKVX > 10 µM | HL-60 3.24 µM | HOP-62 > 10 µM | HOP-92 > 10 µM | HT-29 > 10 µM | IGROV-1 > 10 µM | KM12 > 10 µM | LOX IMVI 8.95 µM | M14 > 10 µM | MDA-MB-231 > 10 µM | MDA-MB-435 > 10 µM | MDA-N > 10 µM | MOLT-4 3.5 µM | Malme-3M > 10 µM | NCI-H23 > 10 µM | OVCAR-4 > 10 µM | OVCAR-8 > 10 µM | PC-3 > 10 µM | RPMI-8226 > 10 µM | RXF 393 > 10 µM | SF-268 > 10 µM | SF-295 > 10 µM | SK-MEL-28 > 10 µM | SK-MEL-5 > 10 µM | SK-OV-3 > 10 µM | SN12C > 10 µM | SNB-75 > 10 µM | SR 2.09 µM | SW-620 > 10 µM | T47D > 10 µM | TK-10 > 10 µM | UACC-257 > 10 µM | UACC-62 > 10 µM
active: CCRF-CEM 0.597 µM | K562 1.12 µM
> 10 µM: HCT-15

CN(C)C(=O)C(F)(F)C(c1ccc(Br)cc1)C1C(=O)N(C)C(=O)N(C)C1=O (configuration not stated)
> 100 µM: HCT-15
inactive: 786-0 > 100 µM | A498 > 100 µM | A549 > 100 µM | ACHN > 100 µM | BT-549 > 100 µM | CAKI-1 > 100 µM | CCRF-CEM > 100 µM | COLO 205 > 100 µM | DU-145 > 100 µM | EKVX > 100 µM | HCC 2998 > 100 µM | HCT-116 > 100 µM | HOP-62 > 100 µM | HOP-92 > 100 µM | K562 > 100 µM | KM12 > 100 µM | LOX IMVI > 100 µM | M14 > 100 µM | MCF7 > 100 µM | MDA-MB-231 > 100 µM | MDA-MB-435 > 100 µM | NCI-H226 > 100 µM | NCI-H23 > 100 µM | NCI-H460 > 100 µM | NCI/ADR-RES > 100 µM | OVCAR-3 > 100 µM | OVCAR-4 > 100 µM | OVCAR-5 > 100 µM | PC-3 > 100 µM | RPMI-8226 > 100 µM | RXF 393 > 100 µM | SF-268 > 100 µM | SF-295 > 100 µM | SK-MEL-28 > 100 µM | SK-MEL-2 > 100 µM | SK-MEL-5 > 100 µM | SK-OV-3 > 100 µM | SNB-19 > 100 µM | SNB-75 > 100 µM | SW-620 > 100 µM | T47D > 100 µM | TK-10 > 100 µM | U-251 > 100 µM | UACC-257 > 100 µM | UACC-62 > 100 µM | UO-31 > 100 µM
